Test results from patent publication US7662775B2 (Astellas Pharma Inc., priority 2000, dated 2010).

Assays:
[1] = molecular target: T1, polypeptide consisting of the amino acid sequence of SEQ ID NO: 2 (Homo sapiens, UniProt Q8TDV5); assay: CRE-luciferase reporter screening in transfected 293-EBNA cells (Example 10); assay type: cell-based; conditions: 293-EBNA cells transfected with pEF-BOS-NA and pCRE-Luc; 6 hours; specific versus pEF-BOS control vector
T1 construct: expressed in transfected cells; host or cells: 293-EBNA cells, transient transfection with plasmid pEF-BOS-NA
T1 sequence (Q8TDV5 1-335): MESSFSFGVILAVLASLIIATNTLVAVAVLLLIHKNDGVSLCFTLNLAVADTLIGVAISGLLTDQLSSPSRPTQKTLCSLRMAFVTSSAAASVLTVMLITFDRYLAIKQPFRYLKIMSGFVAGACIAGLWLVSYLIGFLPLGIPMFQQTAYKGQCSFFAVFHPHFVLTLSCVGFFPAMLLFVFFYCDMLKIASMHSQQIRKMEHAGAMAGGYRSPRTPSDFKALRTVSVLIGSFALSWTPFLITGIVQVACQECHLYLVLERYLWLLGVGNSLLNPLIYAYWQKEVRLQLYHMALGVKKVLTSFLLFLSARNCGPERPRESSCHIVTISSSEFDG
Experimental: (§1) The pEF-BOS-NA plasmid used in Example 6 was also used in the present Example.
293-EBNA cells (7×10^4 cells/well) were seeded on a 24-well plate coated with collagen, and cultured overnight in a Dulbecco modified Eagles' medium (DMEM) containing 1% fetal calf serum (FCS). Then, a transfection reagent (LIPOFECTAMINE 2000; GIBCO BRL) was used to transfect 0.1 ng of a plasmid pEF-BOS-NA or a plasmid pEF-BOS (negative control vector) and 20 ng of a pCRE-Luc vector (CLONTECH) to the cells. The transfected cells were further cultured for 18-20 hours, and then a test compound diluted with a medium containing 0.1% BSA was added, and the whole was incubated at 37° C. for 6 hours in the presence of 5% CO2. After the medium was aspirated, the cells were lysed with a cell lysing solution (cell lysis buffer LCβ; Toyo Ink Mfg.). A luciferase activity of the lysate was measured by a commercially available measuring kit (PicaGene Luminescence kit; Toyo Ink Mfg.) and a measuring apparatus (ML3000 microtiter plate luminometer; Dynatech Laboratories).
L-α-lysophosphatidylcholine oleoyl (L1881; SIGMA), a biocomponent, could be obtained.

[2] = molecular target: T1, polypeptide consisting of the amino acid sequence of SEQ ID NO: 2; assay: Intracellular cAMP amount in transfected 293-EBNA cells, enzymeimmunoassay (Example 11); assay type: cell-based; conditions: 293-EBNA cells transfected with pEF-BOS-NA; 1 mmol/L IBMX; 30 minutes
Experimental: as §1
293-EBNA Cells (1×10^4 cells/well) were seeded on a 96-well plate coated with collagen, and cultured for 24 hours. Then, a transfection reagent (LIPOFECTAMINE 2000; GIBCO BRL) was used to transfect 3 ng of a plasmid pEF-BOS-NA or a plasmid pEF-BOS (negative control vector) to the cells. The transfected cells were further cultured for 20 hours, and the medium was aspirated. After 80 μL of 1 mmol/L IBMX (3-isobutyl-1-methylxanthine)/0.1% BSA/DMEM was added, the whole was incubated at 37° C. for 10 minutes in the presence of 5% CO2. Then, a test compound diluted with 20 μL of 1 mmol/L IBMX/0.1% BSA/DMEM was added, and the whole was incubated for 30 minutes. After the medium was aspirated, the resulting cells were used for the measurement of an amount of cAMP. A commercially available cAMP enzymeimmunoassay system (cyclic AMP kit; Nihon Schering) was used to measure the amount of cAMP.

[3] = system: mouse pancreatic β cell line MIN6; assay: Insulin secretion from mouse pancreatic β cell line MIN6, Part 2 (Example 12); assay type: cell-based; conditions: MIN6 cells, 16.8 mmol/L glucose, 30 minutes
Experimental: MIN6 cells (2.5×10^5 cells) were seeded on a 24-well plate coated with collagen, and cultured for 2 days in a DMEM containing 10% FCS (Cat. No. 11995-065; GIBCO BRL). The medium was aspirated, and 0.4 mL of a glucose-free DMEM containing 10% FCS (Cat. No. 11966-025; GIBCO BRL) was added. The whole was incubated at 37° C. for 2 hours in the presence of 5% CO2.
After the medium was aspirated, 0.5 mL of a solution of L-α-lysophosphatidylcholine oleoyl, the compound selected by the screening method in Example 10, diluted with 2.8 mmol/L or 16.8 mmol/L glucose-containing DMEM (Cat. No. 11966-025; GIBCO BRL) was added, and the whole was incubated at 37° C. for 30 minutes in the presence of 5% CO2. A supernatant was used for measuring an amount of insulin secreted.
(§2) A commercially available insulin radioimmunoassay kit (Phadeseph insulin; Pharmacia Upjohn) was used for the measurement of the amount of insulin secreted.

[4] = system: mouse pancreatic β cell line MIN6; assay: Insulin secretion from mouse pancreatic β cell line MIN6, Part 1 (Example 8); assay type: cell-based; conditions: MIN6 cells, 20 minutes
Experimental: MIN6 cells (2×10^5 cells) were seeded on a 24-well plate, and cultured for 2 days in a DMEM containing 10% FCS. The medium was aspirated, and the cells were washed with KRB-HEPES (140 mmol/L NaCl, 3.6 mmol/L KC1, 0.5 mmol/L NaH2PO4, 0.5 mmol/L MgSO4, 1.5 mmol/L CaCl2, 10 mmol/L Hepes, 2 mmol/L NaHCO3, 0.1% BSA, pH7.4). After 2.8 mmol/L glucose-containing KRB-HEPES (1 ml) was added, the whole was incubated at 37° C. for 30-60 minutes in the presence of 5% CO2.
After the buffer was aspirated, one of the four compounds obtained by the screening in Example 7, i.e., 2-(pyridine-4-yl)ethyl thiobenzoate, in the form of a solution (0.5 ml) prepared by diluting the compound with 2.8 mmol/L or 16.8 mmol/L glucose-containing KRB-HEPES, was added, and the whole was incubated at 37° C. for 20 minutes in the presence of 5% CO2. A supernatant was used for measuring an amount of insulin secreted.
as §2

[5] = molecular target: T1, polypeptide consisting of the amino acid sequence of SEQ ID NO: 2; assay: CRE-luciferase reporter screening in transfected 293-EBNA cells (Example 7); assay type: cell-based; conditions: 293-EBNA cells transfected with pEF-BOS-NA and pCRE-Luc; 5-6 hours incubation; read-out: EC50 value (increase of reporter activity)
Experimental: as §1
293-EBNA cells, (1×10^4 cells/well) were seeded on a 96-well plate coated with collagen, and cultured overnight in a Dulbecco modified Eagles' medium (DMEM) containing 10% fetal calf serum (FCS). Then, a transfection reagent (LIPOFECTAMINE 2000; GIBCO BRL) was used to transfect 0.01 ng of a plasmid pEF-BOS-NA or a plasmid pEF-BOS (negative control vector) and 5 ng of a pCRE-Luc vector (CLONTECH) to the cells. […] After the medium was aspirated, the cells were lysed with a cell lysing solution (cell lysis buffer LCβ; Toyo Ink Mfg.). A luciferase activity of the lysate was measured by a commercially available measuring kit (PicaGene Luminescent kit; Toyo Ink Mfg.) and a measuring apparatus (ML3000 microtiter plate luminometer; Dynatech Laboratories).

SD rats = assay: Glucose tolerance test for SD rats (Example 9); assay type: in vivo, rat; conditions: 100 mg/kg intraperitoneally 5 minutes before 2 g/kg oral glucose, 30 minutes after glucose, p<0.05 vs control
Experimental: (§3) SD rats (4 weeks old; CLEA JAPAN) were forced to fast overnight, and 2 g/kg of glucose was orally administered. 100 mg/kg of 2-(pyridine-4-yl)ethyl thiobenzoate (LT-1 Z 0059519) had been intraperitoneally administered 5 minutes before the glucose administration. An appropriate amount of blood was taken 0 minute, 30 minutes, 60 minutes, and 120 minutes after the glucose administration, and used for the measurement of a blood glucose level and a concentration of plasma insulin.
(§4) For measuring the blood glucose level, a supernatant obtained by mixing blood and 0.33 mol/L perchloric acid (blood:0.33 mol/L perchloric acid=1:10) and centrifuging the mixture (3000×g, 10 minutes, 4° C.) was used. For measuring the concentration of plasma insulin, a supernatant obtained by centrifuging blood (3000×g, 10 minutes, 4° C.) was used. Further, Glucose C test Wako (Wako) was used in the measurement of the blood glucose level, and a rat insulin assay system (Amersham) was used in the measurement of the concentration of plasma insulin.
FIG. 1 illustrates a time course of the concentration of plasma insulin (unit=ng/mL) after the oral administration of glucose, and FIG. 2 illustrates a time course of the blood glucose level (unit=mg/dL) after the oral administration of glucose. […]

GK (Goto-Kakizaki) rats = assay: Glucose tolerance test for GK rats, type II diabetes model (Example 9); assay type: in vivo, rat; conditions: 100 mg/kg orally administered, 2 g/kg oral glucose, 30 and 60 minutes after glucose
Experimental: as §3, §4
Then, a glucose tolerance test for GK (Goto-Kakizaki) rats (type II diabetes models with incomplete insulin secretion; 7 weeks old; Charles River Japan) by one oral dose was carried out. […]

SMILES	reporter activity (luciferase) [1]	amount of cAMP [2]	amount of insulin secreted [3]	amount of insulin secreted ([4]; 2.8 mmol/L glucose)	amount of insulin secreted ([4]; 16.8 mmol/L glucose)	EC50 [5] [µM]	concentration of plasma insulin (SD rats)	increase of the blood glucose level by the glucose administration (SD rats)	increase of the blood glucose level by the glucose administration (GK (Goto-Kakizaki) rats)
CCCCCCCC/C=C\CCCCCCCC(=O)OC[C@@H](O)COP(=O)([O-])OCC[N+](C)(C)C [L-α-lysophosphatidylcholine oleoyl]	increase of a reporter activity specifically in cells	exhibited an increase of the amount of cAMP specifically in the cells	caused an increase	–	–	–	–	–	–
O=C(SCCc1ccncc1)c1ccccc1	–	–	–	did not cause an increase	caused an increase	3.2	significant increase	significantly suppressed	significantly suppressed
